Reference: US5679700A, “Substituted phosphinic acid-containing peptidyl derivatives as antidegenerative agents” (Merck & Co., Inc., priority 1995, dated 1997)

Columns and labels:
GELATINASE = biological target: T1, GELATINASE (Homo sapiens, UniProt P08253); assay: inhibition of cleavage of fluorogenic peptide DNP-Pro-Leu-Gly-Leu-Trp-Ala-(D)-Arg-NH2 by gelatinase; format: biochemical; conditions: Human Fibroblast; SE in parentheses
T1 sequence (P08253 110-660): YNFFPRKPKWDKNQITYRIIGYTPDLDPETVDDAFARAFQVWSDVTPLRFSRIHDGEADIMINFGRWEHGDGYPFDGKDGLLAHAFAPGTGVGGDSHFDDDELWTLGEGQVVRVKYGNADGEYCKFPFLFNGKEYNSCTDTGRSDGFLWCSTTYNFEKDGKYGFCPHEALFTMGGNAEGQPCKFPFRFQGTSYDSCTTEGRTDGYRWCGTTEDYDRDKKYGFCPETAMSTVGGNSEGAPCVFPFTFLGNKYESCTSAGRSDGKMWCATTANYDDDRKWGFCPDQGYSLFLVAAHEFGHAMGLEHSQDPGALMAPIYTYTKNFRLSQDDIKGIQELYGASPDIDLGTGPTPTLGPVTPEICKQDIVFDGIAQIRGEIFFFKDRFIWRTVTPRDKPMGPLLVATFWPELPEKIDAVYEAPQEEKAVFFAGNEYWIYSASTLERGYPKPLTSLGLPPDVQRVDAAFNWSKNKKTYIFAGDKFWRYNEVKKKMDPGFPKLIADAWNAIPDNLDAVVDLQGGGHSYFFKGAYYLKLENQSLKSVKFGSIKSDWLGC

[1] = biological target: Human Fibroblast STROMELYSIN (Homo sapiens, UniProt P08254); assay: biochemical; conditions: SE in parentheses
Human Fibroblast STROMELYSIN, sequence (P08254 100-477): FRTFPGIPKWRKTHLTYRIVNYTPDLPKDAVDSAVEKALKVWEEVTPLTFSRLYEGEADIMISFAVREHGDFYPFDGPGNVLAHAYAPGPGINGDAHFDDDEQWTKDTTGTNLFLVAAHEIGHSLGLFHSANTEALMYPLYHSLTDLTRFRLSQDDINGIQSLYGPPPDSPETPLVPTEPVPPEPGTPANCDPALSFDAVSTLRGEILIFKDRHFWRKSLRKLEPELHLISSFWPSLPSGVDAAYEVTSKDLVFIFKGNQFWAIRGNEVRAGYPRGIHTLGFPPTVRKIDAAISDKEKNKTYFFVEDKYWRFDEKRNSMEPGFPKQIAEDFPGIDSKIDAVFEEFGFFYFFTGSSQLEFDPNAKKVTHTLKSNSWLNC

COLLAGENASE = biological target: T2, COLLAGENASE (Homo sapiens, UniProt P03956); assay: inhibition of cleavage of fluorogenic peptide DNP-Pro-Leu-Gly-Leu-Trp-Ala-(D)-Arg-NH2 by collagenase; format: biochemical; conditions: Human Fibroblast; SE in parentheses where printed
T2 sequence (P03956 100-469): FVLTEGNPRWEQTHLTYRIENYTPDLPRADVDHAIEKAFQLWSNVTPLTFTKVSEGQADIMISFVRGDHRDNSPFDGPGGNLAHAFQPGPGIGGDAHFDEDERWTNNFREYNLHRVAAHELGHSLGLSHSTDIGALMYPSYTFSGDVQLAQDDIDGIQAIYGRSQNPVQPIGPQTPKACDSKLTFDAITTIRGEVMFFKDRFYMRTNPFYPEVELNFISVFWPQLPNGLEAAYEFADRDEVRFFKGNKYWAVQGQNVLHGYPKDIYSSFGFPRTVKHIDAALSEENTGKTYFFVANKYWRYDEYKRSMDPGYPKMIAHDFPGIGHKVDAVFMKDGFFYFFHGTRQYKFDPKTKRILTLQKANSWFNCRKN

[2] = biological target: rabbit bone proteoglycanase; conditions: cited from earlier work
[3] = biological target: human rheumatoid synovial collagenase; conditions: cited from earlier work

Row | Ki (GELATINASE) [µM] | Ki [1] [µM] | SMILES | Ki (COLLAGENASE) [nM] | IC50 [2] [nM] | IC50 [3] [nM]
1 | 0.0056 | 0.022 | CC(C)C[C@H](NC(=O)C(CCc1ccccc1)CP(=O)(O)CCCCNC(=O)NC(C)C)C(=O)Nc1ccccc1 (some centres unmarked) [(CH2)4 NCHCONH-i-C3 H7] |  |  | 
2 | 0.034 | 0.019 | CC(C)COC(=O)NCCCCP(=O)(O)CC(CCc1ccccc1)C(=O)N[C@@H](CC(C)C)C(=O)Nc1ccccc1 (some centres unmarked) [(CH2)4 NCO2 -i-C4 H4] |  |  | 
3 | 0.026 |  | CC(C)C[C@H](NC(=O)C(CCc1ccccc1)CP(=O)(O)CCCCN1C(=O)c2ccccc2C1=O)C(=O)Nc1ccccc1 (stereo partly drawn) [(CH2)4 NPhth, (2-(((4-(1,3-Dihydro-1,3-dioxo-2H-isoindol-2-yl)butyl)hydroxyphosphinyl)methyl)-4-phenylbutanoyl)-L-leucine N-phenylamide] | 1000 |  | 
4 |  |  | CNC(=O)[C@H](Cc1ccc(OC)cc1)NC(=O)[C@H](CC(C)C)NC(CCNC(=O)OCc1ccccc1)C(=O)O (stereo partly drawn) [N-[3-(benzyloxycarbonyl)amino-1-carboxy-n-propyl]-L-leucyl-O-methyl-L-tyrosine, N-methylamide] |  | 500 | 800

Row | SMILES | Ki (GELATINASE) [µM] | Ki [1] [µM] | Ki (COLLAGENASE) [nM] | IC50 [2] [nM] | IC50 [3] [nM]
5 | CC(=O)N1CCC[C@H]1C(=O)N[C@@H](C)C(=O)N[C@@H](C)P(=O)(O)CC(CCc1ccccc1)C(=O)N[C@@H](CC(C)C)C(=O)Nc1ccccc1 (stereo partly drawn) [(R)CH(CH3)NHAlaProAc, [[Hydroxy[1(R)-[N-(N-acetyl-L-prolyl-L-alanyl)-amino]-ethyl]-phosphinyl]-methyl]-4-phenylbutanoyl-L-leucyl N-phenylamide] | 0.0026 | 0.0061 | 2900 |  | 
